Measurements from patent US20200237700A1, “METHODS OF REDUCING OR PREVENTING OXIDATION OF SMALL DENSE LDL OR MEMBRANE POLYUNSATURATED FATTY ACIDS” (Amarin Pharmaceuticals Ireland Limited, priority 2015, published 2020).

Assays:
[1] = Small angle x-ray diffraction of glucose-treated model membranes, cholesterol domain peak intensity (Example 4); format: physicochemical; settings: 96-hour time point; vs vehicle or vitamin E treatments; 1:30; glucose 200 mg/dL
Experimental: After centrifugal orientation, sample supernatants were aspirated and aluminum foil substrates, each supporting a single membrane pellet, were removed from the sedimentation cells. […] All x-ray diffraction experiments were conducted at 20° C., 74% relative humidity.
Oriented membrane samples were aligned at grazing incidence with respect to a collimated, mono-chromatic CuKα x-ray beam (Kα1 and Kα2 unresolved; λ=1.54 Å) produced by a Rigaku Rotaflex RU-200, high-brilliance microfocus generator (Rigaku-MSC, The Woodlands, Tex.) as previously described (Mason et al., Biophys. J., vol. 55(4), pages 769-778 (1989)).
Routines written in Origin 8.6 (OriginLab Corporation, Northampton, Mass.) were used to determine total peak area (associated with all diffraction peaks in a given pattern) against which the second-order cholesterol domain peak was normalized.

[2] = Lipid hydroperoxide (LOOH) formation in cholesterol-enriched model membranes under autoxidation, CHOD-iodide assay (Example 3); format: biochemical; settings: EPA to lipids 1:30, C/P 0.6:1
Experimental: An experiment was conducted to test EPA in model membranes enriched with PUFAs and cholesterol at levels that reproduce disease or high CV-risk conditions (i.e., hypercholesterolemia). […] Levels of lipid hydroperoxides were also measured in cholesterol-enriched membrane prepared in the absence of EPA as a control. […] CHOD-iodide color reagent (stock) was prepared according to a procedure modified from El-Saadani et […], Goher […], Jurgens G. A spectrophotometric assay for lipid peroxides in serum lipoproteins using commercially available reagent. J. Lipid. […] Membrane samples consisting of DLPC±cholesterol were prepared as follows. Component lipids (in chloroform) were transferred to 13×100 mm test tubes and shell-dried under a steady stream of nitrogen gas while vortex mixing. The lipid was co-dried with EPA. Residual solvent was removed by drying for a minimum of 3 h under vacuum. […] Absorbances were measured against a CHOD blank at 365 nm using a Beckman DU-640 spectrophotometer. The CHOD colorimetric assay is based on the oxidation of iodide (I^-) by lipid hydroperoxides (LOOH) and proceeds according to the following reaction scheme: […]3^- The quantity of triiodide anion (I3^-) liberated in this reaction is directly proportional to the amount of lipid hydroperoxides present in the membrane sample.

[3] = tested on: sdLDL isolated from human plasma; assay: Copper-induced sdLDL oxidation 1 hour (Example 12); format: biochemical; settings: 10.0 μM; copper-induced oxidation 1 hour
Experimental: (§1) All samples, with the exception of non-oxidized sdLDL controls, were subjected to copper-induced oxidation for 1 hour. Human umbilical vein endothelial cells (HUVECs) were incubated with the various sdLDL samples, stimulated with calcium, and monitored for nitric oxide (NO) and peroxynitrite (ONOO^−) release using nanosensor technology.

[4] = LOOH formation in glucose-treated model membranes, EPA versus EA and ETE (Example 5); format: biochemical; settings: 72 and 96 hr
Experimental: An experiment was conducted to compare the ability of EPA to prevent lipid hydroperoxide formation in model membranes treated with glucose to two other 20-carbon fatty acids: eicosanoic acid (“EA,” also referred to as arachidic acid, C20:0) and eicosatrienoic acid (“ETE,” C20:3, n−3). All MLV samples were subjected to time-dependent autoxidation by incubating at 37° C. in an uncovered, shaking water bath. This method allows lipid peroxidation to occur gradually without requiring the use of exogenous initiators. Small aliquots (5-100 μL) of each sample were removed, immediately following MLV preparation (0 hr) and after exposing samples to oxidative conditions for 72 or 96 hr, and combined with 1.0 mL of activated CHOD-iodide color reagent. Aliquot volume was reduced with each successive time point to ensure that spectrophotometric readings were within the optimal adsorption range. Test samples were covered and incubated in darkness at room temperature for at least 4 hr. Sample absorbances were then measured against a CHOD blank at 365 nm using a Beckman DU-640 spectrophotometer. The CHOD colorimetric assay is based on the oxidation of iodide (I^−) by lipid hydroperoxide (LOOH) to form triiodide (I3^−), the quantity of which is directly proportional to the amount of LOOH present in the lipid sample. The molar absorptivity (E) of I3^− is 2.46×10^4 M^−1 cm^−1 at 365 nm.

[5] = tested on: HUVECs; assay: NO release from HUVECs incubated with treated, oxidized sdLDL samples (Example 12); format: cell-based, human; settings: EPA-treated
Experimental: as §1

Question: With CC/C=C\C/C=C\C/C=C\C/C=C\C/C=C\CCCC(=O)O [EPA, cis-5,8,11,14,17-eicosapentaenoic acid] as the molecule, how does the “inhibited relative cholesterol domain peak intensity” value [1] read?
Answer: more than 99%

Question: And the LOOH levels ([2]; after autoxidation 37° C. 72 hours)?
Answer: 728 ± 30 µM

Question: And the “reduced LOOH levels compared to untreated controls” value ([2]; autoxidation 37° C. 72 hours)?
Answer: greater than 90%

Question: What about the “reduced sdLDL oxidation compared to vehicle treatment alone” value [3] of the same molecule?
Answer: > 90%

Question: What about the “LOOH formation compared to vehicle only, glucose only, glucose and EA, glucose and ETE” value [4] of the same molecule?
Answer: significantly less LOOH formation

Question: What about the “NO release increased as compared to non-oxidized sdLDL treatment” value [5] of the same molecule?
Answer: 23%

Question: And the “NO release increased as compared to oxidized LDL treatment” value [5]?
Answer: 53%
